Data set [1] has as its system TNF-α production from human whole blood. The data set can be described thus: Inhibition of TNF-α production from human whole blood (hWBA). To be noted: human whole blood diluted 1:1, 1 h pre-incubation, LPS, 3.5 h, TNF-α by ELISA; N/A = Not Active. The format is cell-based. The method, then:
The compounds' ability to inhibit TACE activity can also be determined in human whole blood using the assay conditions described n Example 15 below.
Human whole blood was diluted 1:1 with serum free medium (RPMI, L-glutamine, Pen-Strep, HEPES) and incubated with a test compound in a final volume of 360 μl for 1 h at 37° C. Forty microliters of LPS (10 μg/mL) was then added. Supernatant was collected after 3.5 h incubation and the concentration of TNF-α was determined by ELISA (R&D Systems). The concentration of the test compound which inhibits 50% of the amount of TNF-α from the untreated control was determined.

Data set [2] can be described thus: Area under the curve determinations of plasma levels in rats (rrAUC). Format: in vivo. The following applies: rapid rat AUC of the drug (parent) in plasma; oral 10 mg/kg, fasted rats, blood 0.5-6 h post-dosing. The method, then: To gain insight into the pharmacokinetic properties of the compounds of formula (I), plasma levels of the compounds in rats were determined according to the protocol described in Korfmacher, W. A,; Cox, K. A.; Ng, K. J.; Veals, J.; Hsieh, Y.; Wainhaus, S.; Broske, L; Prelusky, D.; Nomeir, A.; White, R. E. Rapid Commun. Mass Spectrorn, 2001, 15, 335. Briefly, rats, after an overnight fast, were dosed orally with the test compound at a dose of 10 mg/kg in a 5 mL/kg dose volume. Blood was collected at 0.5, 1, 2, 3, 4, and 6 h post-dosing. Mass spectrometry using high performance liquid chromatography was used to identify and measure the concentrations of the test compounds in the plasma at the various time points. The parent ion of each test compound was used to identify and quantitate the compounds in plasma.

The compound `COc1ccc2c(c1)C(=O)N(C[C@@]1(c3cc4cnccc4o3)NC(=O)N(COC(=O)[C@H](N)C(C)C)C1=O)C2` [Compound 35.3] had an IC50 in data set [1] of 244 nM. Besides, in data set [2], the “PK (rrAUC) parent” value stood at 4316 nM·h.
On the same counts, the results for `COc1ccc2c(c1)C(=O)N(C[C@@]1(c3cc4cnccc4o3)NC(=O)N(COC(=O)OCCN(C)C)C1=O)C2` [Compound 63.4] are 427 nM and 1604 nM·h.
Taken in the same sequence, the figures for `COc1ccc2c(c1)C(=O)N(C[C@@]1(c3cc4ncccc4o3)NC(=O)N(C(C)C)C1=O)C2` [Compound 51] were 7150 nM and 370 nM·h.
`COc1ccc2c(c1)C(=O)N(C[C@@]1(C#Cc3ccc4c(=O)[nH][nH]c4c3)NC(=O)N(COC(=O)C(C)(C)C)C1=O)C2` [Compound 13] displayed an IC50 in data set [1] of 213 nM. Moreover, the “PK (rrAUC) parent” value in data set [2] came out at 0 nM·h.
Taken in the same sequence, the figures for `COc1ccc2c(c1)C(=O)N(C[C@@]1(c3cc4cnccc4o3)NC(=O)N(COC(=O)OC3CCN(C)CC3)C1=O)C2` [Compound 63.3] were 1400 nM and 13539 nM·h.
Taken in the same sequence, the figures for `COc1ccc2c(c1)C(=O)N(C[C@@]1(c3cc4nc(N5CC[C@@H](O)C5)ccc4o3)NC(=O)N(COC(=O)C(C)(C)C)C1=O)C2` [Compound 21] were 339 nM and 2684 nM·h.
On the same counts, the results for `COc1ccc2c(c1F)C(=O)N(C[C@@]1(c3cc4nc(N5CCN(C)CC5)ccc4o3)NC(=O)N(COC(=O)C(C)(C)C)C1=O)C2` [Compound 4] are 92 nM and 8621 nM·h.
Take `COc1ccc2c(c1)C(=O)N(C[C@@]1(c3cc4cnccc4o3)NC(=O)N(COC(=O)OC3CCOCC3)C1=O)C2` [Compound 59]: 184 nM corresponded to half-maximal inhibition in data set [1] (IC50). Besides, the “PK (rrAUC) parent” value in data set [2] is 13539 nM·h.
Turning to `COc1ccc2c(c1F)C(=O)N(C[C@@]1(c3cc4c(C)nccc4o3)NC(=O)N(COC(=O)C(C)(C)C)C1=O)C2` [Compound 11], the IC50 in data set [1] is 235 nM. Further, in data set [2], the “PK (rrAUC) parent” value amounted to 1827 nM·h.
Taken in the same sequence, the figures for `COc1ccc2c(c1F)C(=O)N(C[C@@]1(C#Cc3ccc4c(=O)[nH][nH]c4c3)NC(=O)N(COC(=O)C(C)(C)C)C1=O)C2` [Compound 14] were 275 nM and 0 nM·h.
Taken in the same sequence, the figures for `COc1ccc2c(c1F)C(=O)N(C[C@@]1(C#Cc3cncc(NC(=O)C4CCN(C)CC4)c3)NC(=O)N(COC(=O)C(C)(C)C)C1=O)C2` [Compound 36] were 171 nM and 0 nM·h.
On to `COc1ccc2c(c1)C(=O)N(C[C@@]1(c3cc4cnccc4o3)NC(=O)N(COC(=O)OC(C)C)C1=O)C2` [Compound 62], for which, in data set [1], the IC50 came to 250 nM. For the same compound, the “PK (rrAUC) parent” value in data set [2] was 0 nM·h.
Taken in the same sequence, the figures for `COc1ccc2c(c1F)C(=O)N(C[C@@]1(c3cc4c(OC(C)=O)nccc4o3)NC(=O)N(COC(=O)C(C)(C)C)C1=O)C2` [Compound 22] were 2820 nM and 823 nM·h.
On the same counts, the results for `COc1ccc2c(c1F)C(=O)N(C[C@@]1(c3cc4nc(N5CCC5=O)ccc4o3)NC(=O)N(COC(=O)C(C)(C)C)C1=O)C2` [Compound 6] are 447 nM and 2283 nM·h.
Taken in the same sequence, the figures for `COc1ccc2c(c1F)C(=O)N(C[C@@]1(c3cc4ncc(C(N)=O)cc4o3)NC(=O)N(COC(=O)C(C)(C)C)C1=O)C2` [Compound 19] were 101 nM and 94 nM·h.
As for `COc1ccc2c(c1F)C(=O)N(C[C@@]1(c3cc4nc(N5C[C@H](O)CC5=O)ccc4o3)NC(=O)N(COC(=O)C(C)(C)C)C1=O)C2` [Compound 37], the IC50 in data set [1] was 148 nM. In addition, the “PK (rrAUC) parent” value in data set [2] worked out at 0 nM·h.
On the same counts, the results for `COc1ccc2c(c1)C(=O)N(C[C@@]1(c3cc4nc(NS(C)(=O)=O)ccc4o3)NC(=O)N(COC(=O)C(C)(C)C)C1=O)C2` [Compound 26] are 645 nM and 0 nM·h.
On the same counts, the results for `COc1ccc2c(c1)C(=O)N(C[C@@]1(C#Cc3ccc(C(N)=O)cc3)NC(=O)N(COC(=O)C(C)(C)C)C1=O)C2` [Compound 15] are 188 nM and 0 nM·h.
The compound `COc1ccc2c(c1)C(=O)N(C[C@]1(c3cc4cnccc4o3)C(=O)N(COC(=O)c3ccccc3OC(C)=O)C(=O)N1C(C)=O)C2` [Compound 83] returned an IC50 in data set [1] of 931 nM. Also, the “PK (rrAUC) parent” value in data set [2] stood at 0 nM·h.
For `COc1ccc2c(c1)C(=O)N(C[C@@]1(c3cc4ncccc4o3)NC(=O)N(COC(=O)c3ccccc3OC(C)=O)C1=O)C2` [Compound 65], the IC50 in data set [1] stood at 560 nM. In addition, in data set [2], the “PK (rrAUC) parent” value was 4426 nM·h.
The compound `CCN1CCN(c2ccc3oc([C@]4(CN5Cc6ccc(OC)cc6C5=O)NC(=O)N(COC(=O)C(C)(C)C)C4=O)cc3n2)CC1` [Compound 24] came in with an IC50 in data set [1] of 176 nM. Moreover, the “PK (rrAUC) parent” value in data set [2] turned out to be 655 nM·h.
With `COc1ccc2c(c1)C(=O)N(C[C@@]1(c3cc4ncccc4o3)NC(=O)N(COC(=O)C(C)(C)C)C1=O)C2` [Compound 1], in data set [1], the IC50 is 281 nM. Besides, in data set [2], the “PK (rrAUC) parent” value is 13101 nM·h.
In data set [1], `COc1ccc2c(c1)C(=O)N(C[C@@]1(c3cc4cnccc4o3)NC(=O)N(CN(C)C(=O)C(C)(C)C)C1=O)C2` [Compound 76.2] showed a concentration for half-maximal inhibition (IC50) of 754 nM. In data set [2], the “PK (rrAUC) parent” value is 310 nM·h.
On the same counts, the results for `CCN1CCN(c2ccc3oc([C@]4(CN5Cc6ccc(OC)c(F)c6C5=O)NC(=O)N(COC(=O)C(C)(C)C)C4=O)cc3n2)CC1` [Compound 3] are 61 nM and 19953 nM·h.
Taken in the same sequence, the figures for `COc1ccc2c(c1)C(=O)N(C[C@@]1(c3cc4nc(N5C[C@H](O)CC5=O)ccc4o3)NC(=O)N(COC(=O)C(C)(C)C)C1=O)C2` [Compound 31] were 224 nM and 334 nM·h.
Compound `COc1ccc2c(c1F)C(=O)N(C[C@@]1(c3cc4cnc(C)cc4o3)NC(=O)N(COC(=O)C(C)(C)C)C1=O)C2` [Compound 12] gave an IC50 in data set [1] of 187 nM. Besides, in data set [2], the “PK (rrAUC) parent” value is 45,213 nM · h.
For the compound `COc1ccc2c(c1)C(=O)N(C[C@@]1(c3cc4cc(-c5cc(=O)[nH]c(N)n5)ccc4o3)NC(=O)N(COC(=O)C(C)(C)C)C1=O)C2` [Compound 27], in data set [1], the IC50 is 940 nM. The “PK (rrAUC) parent” value in data set [2] was found to be 0 nM·h.
In the case of `COc1ccc2c(c1)C(=O)N(C[C@@]1(c3cc4cnccc4o3)NC(=O)N(C(C)OC(=O)OC3CCOCC3)C1=O)C2` (stereo partly shown) [Compound 61], inhibition in data set [1] was half-maximal at 685 nM (IC50). Also, in data set [2], the “PK (rrAUC) parent” value worked out at 0 nM·h.
Taken in the same sequence, the figures for `COc1ccc2c(c1)C(=O)N(C[C@@]1(c3cc4nc(N5CCCNC5=O)ccc4o3)NC(=O)N(COC(=O)C(C)(C)C)C1=O)C2` [Compound 20] were 282 nM and 148 nM·h.
As for `COc1ccc2c(c1F)C(=O)N(C[C@@]1(c3cc4nc(-c5cn[nH]c5)ccc4o3)NC(=O)N(COC(=O)C(C)(C)C)C1=O)C2` [Compound 16], the IC50 in data set [1] is 141 nM. Besides, the “PK (rrAUC) parent” value in data set [2] amounted to 249 nM·h.
Regarding `COc1ccc2c(c1F)C(=O)N(C[C@@]1(c3cc4nc(N5C(=O)CCC5C)ccc4o3)NC(=O)N(COC(=O)C(C)(C)C)C1=O)C2` (stereo partly shown) [Compound 9], half-maximal inhibition in data set [1] (IC50) was put at 192 nM. The “PK (rrAUC) parent” value in data set [2] is 4557 nM·h.
On the same counts, the results for `COc1ccc2c(c1)C(=O)N(C[C@@]1(c3cc4nc(-c5c(C)nn(C)c5C)ccc4o3)NC(=O)N(COC(=O)C(C)(C)C)C1=O)C2` [Compound 17] are 626 nM and 2005 nM·h.

The values are drawn from US8859529B2, “Compounds for the treatment of inflammatory disorders” (Merck Sharp & Dohme Corp., priority 2008, dated 2014).
